Experimental data taken from the NIST ThermoML archive (doi:10.1021/acs.jced.7b00176).

Tests used:
[1] = Liquid, Vibrating tube method
[2] = xn = mol fraction of the nth substance listed; details: Liquid, Vibrating tube method, x1 = 1

CCCCO [butan-1-ol]
[1]
Details	mass density [kg/m3]
283.63 K, 80 kPa	817.19
283.63 K, 5000 kPa	820.7
283.64 K, 1000 kPa	817.88
283.64 K, 40000 kPa	842.03
283.64 K, 60000 kPa	852.39
283.64 K, 100000 kPa	870.33
283.65 K, 30000 kPa	836.43
283.65 K, 80000 kPa	861.72
283.66 K, 10000 kPa	824.01
283.66 K, 20000 kPa	830.39
303.45 K, 100 kPa	801.81
303.45 K, 1000 kPa	802.54
303.46 K, 5000 kPa	805.65
303.46 K, 10000 kPa	809.35
303.47 K, 20000 kPa	816.29
303.47 K, 30000 kPa	822.84
303.47 K, 40000 kPa	828.87
303.47 K, 60000 kPa	839.95
303.48 K, 80010 kPa	849.82
303.48 K, 100000 kPa	858.94
323.25 K, 1000 kPa	787.19
323.26 K, 100 kPa	786.36
323.26 K, 5000 kPa	790.63
323.27 K, 10000 kPa	794.68
323.27 K, 20000 kPa	802.33
323.27 K, 30000 kPa	809.41
323.28 K, 40000 kPa	816
323.28 K, 60000 kPa	827.77
323.28 K, 80000 kPa	838.31
323.28 K, 100000 kPa	847.65
343.03 K, 100 kPa	769.54
343.03 K, 1000 kPa	770.45
343.04 K, 5000 kPa	774.32
343.04 K, 10000 kPa	778.88
343.05 K, 20000 kPa	787.37
343.05 K, 30000 kPa	795.06
343.05 K, 40000 kPa	802.13
343.05 K, 60000 kPa	814.83
343.05 K, 80000 kPa	826.08
343.05 K, 100000 kPa	836.2
362.68 K, 100 kPa	752.67
362.68 K, 1000 kPa	753.64
362.68 K, 30000 kPa	781.04
362.69 K, 5000 kPa	758.03
362.69 K, 10000 kPa	763.16
362.69 K, 20000 kPa	772.56
362.7 K, 40000 kPa	788.67
362.7 K, 60000 kPa	802.36
362.71 K, 80000 kPa	814.44
362.71 K, 100000 kPa	825.18

CCCCO [butan-1-ol] + COCCOCCOC
[2]
Details	mass density [kg/m3]
283.63 K, 80 kPa	817.19
283.63 K, 5000 kPa	820.7
283.64 K, 1000 kPa	817.88
283.64 K, 40000 kPa	842.03
283.64 K, 60000 kPa	852.39
283.64 K, 100000 kPa	870.33
283.65 K, 30000 kPa	836.43
283.65 K, 80000 kPa	861.72
283.66 K, 10000 kPa	824.01
283.66 K, 20000 kPa	830.39
303.45 K, 100 kPa	801.81
303.45 K, 1000 kPa	802.54
303.46 K, 5000 kPa	805.65
303.46 K, 10000 kPa	809.35
303.47 K, 20000 kPa	816.29
303.47 K, 30000 kPa	822.84
303.47 K, 40000 kPa	828.87
303.47 K, 60000 kPa	839.95
303.48 K, 80010 kPa	849.82
303.48 K, 100000 kPa	858.94
323.25 K, 1000 kPa	787.19
323.26 K, 100 kPa	786.36
323.26 K, 5000 kPa	790.63
323.27 K, 10000 kPa	794.68
323.27 K, 20000 kPa	802.33
323.27 K, 30000 kPa	809.41
323.28 K, 40000 kPa	816
323.28 K, 60000 kPa	827.77
323.28 K, 80000 kPa	838.31
323.28 K, 100000 kPa	847.65
343.03 K, 100 kPa	769.54
343.03 K, 1000 kPa	770.45
343.04 K, 5000 kPa	774.32
343.04 K, 10000 kPa	778.88
343.05 K, 20000 kPa	787.37
343.05 K, 30000 kPa	795.06
343.05 K, 40000 kPa	802.13
343.05 K, 60000 kPa	814.83
343.05 K, 80000 kPa	826.08
343.05 K, 100000 kPa	836.2
362.68 K, 100 kPa	752.67
362.68 K, 1000 kPa	753.64
362.68 K, 30000 kPa	781.04
362.69 K, 5000 kPa	758.03
362.69 K, 10000 kPa	763.16
362.69 K, 20000 kPa	772.56
362.7 K, 40000 kPa	788.67
362.7 K, 60000 kPa	802.36
362.71 K, 80000 kPa	814.44
362.71 K, 100000 kPa	825.18
